According to PubChem BioAssay AID222 (DTP/NCI, 2004):
Several values for one entry are separate records, joined by “and”; a condition that tells them apart may be missing. Equal values may be shown once. Inconclusive results and toxic doses are left out. The calls were made as follows: active = survival T/C of 150% or more; inactive = T/C below 125% in these data.

Test system: C57BL/6 mice, intracerebral ependymoblastoma, median survival T/C
Assay: NCI In Vivo Anticancer Drug Screen. Data for tumor model Ependymoblastoma (intracerebral) in C57BL/6 mice
Details: endpoint: median survival time, higher = longer survival
Method: The antitumor activity of compounds was measured in mice bearing transplantable tumors. Survival or tumor size were measured and the results are expressed as the measurement made in the treated group (T) divided by the measurement made in the vehicle treated control group (C). The tumor model used in this assay is Ependymoblastoma (intracerebral) in C57BL/6 mice

[1] = dose: 0.25 mg/kg/injection, schedule: Q01DX005 (ip), vehicle: saline
[2] = dose: 0.5 mg/kg/injection, schedule: Q01DX005 (ip), vehicle: saline
[3] = dose: 1.0 mg/kg/injection, schedule: Q01DX005 (ip), vehicle: saline

Measured: T/C

OC(CBr)C(O)C(O)C(O)CBr (stereo unspecified)
inactive: dose: 8.0 mg/kg/injection, schedule: Q01DX005 (ip), vehicle: saline 101 % of control | dose: 12.0 mg/kg/injection, schedule: Q01DX005 (ip), vehicle: saline 89 % of control | dose: 18.0 mg/kg/injection, schedule: Q01DX005 (ip), vehicle: saline 100 % of control | dose: 27.0 mg/kg/injection, schedule: Q01DX005 (ip), vehicle: saline 95 % of control | dose: 32.0 mg/kg/injection, schedule: Q01DX001 (ip), vehicle: Klucel (hydroxypropylcellulose) (HPC) 108 % of control | dose: 32.0 mg/kg/injection, schedule: Q01DX001 (oral), vehicle: Klucel (hydroxypropylcellulose) (HPC) 96 % of control | dose: 32.0 mg/kg/injection, schedule: Q01DX005 (oral), vehicle: Klucel (hydroxypropylcellulose) (HPC) 97 % of control | dose: 50.0 mg/kg/injection, schedule: Q01DX005 (ip), vehicle: saline 107 % of control | dose: 60.0 mg/kg/injection, schedule: Q01DX005 (ip), vehicle: saline 116 % of control | dose: 64.0 mg/kg/injection, schedule: Q01DX001 (ip), vehicle: Klucel (hydroxypropylcellulose) (HPC) 111 % of control | dose: 64.0 mg/kg/injection, schedule: Q01DX001 (oral), vehicle: Klucel (hydroxypropylcellulose) (HPC) 99 % of control | dose: 64.0 mg/kg/injection, schedule: Q01DX005 (oral), vehicle: Klucel (hydroxypropylcellulose) (HPC) 102 % of control | dose: 100.0 mg/kg/injection, schedule: Q01DX001 (ip), vehicle: Klucel (hydroxypropylcellulose) (HPC) 103 % of control | dose: 100.0 mg/kg/injection, schedule: Q01DX005 (ip), vehicle: saline 92 % of control and 120 % of control | dose: 100.0 mg/kg/injection, schedule: Q#A X002 (ip), vehicle: Klucel (hydroxypropylcellulose) (HPC) 102 % of control | dose: 128.0 mg/kg/injection, schedule: Q01DX001 (ip), vehicle: Klucel (hydroxypropylcellulose) (HPC) 109 % of control | dose: 128.0 mg/kg/injection, schedule: Q01DX001 (oral), vehicle: Klucel (hydroxypropylcellulose) (HPC) 100 % of control | dose: 200.0 mg/kg/injection, schedule: Q01DX001 (ip), vehicle: Klucel (hydroxypropylcellulose) (HPC) 102 % of control and 112 % of control and 115 % of control | dose: 200.0 mg/kg/injection, schedule: Q01DX005 (ip), vehicle: saline 96 % of control and 107 % of control | dose: 200.0 mg/kg/injection, schedule: Q#A X002 (ip), vehicle: Klucel (hydroxypropylcellulose) (HPC) 102 % of control and 106 % of control | dose: 256.0 mg/kg/injection, schedule: Q01DX001 (ip), vehicle: Klucel (hydroxypropylcellulose) (HPC) 122 % of control | dose: 256.0 mg/kg/injection, schedule: Q01DX001 (oral), vehicle: Klucel (hydroxypropylcellulose) (HPC) 101 % of control | dose: 400.0 mg/kg/injection, schedule: Q01DX001 (ip), vehicle: Klucel (hydroxypropylcellulose) (HPC) 105 % of control and 106 % of control | dose: 400.0 mg/kg/injection, schedule: Q#A X002 (ip), vehicle: Klucel (hydroxypropylcellulose) (HPC) 111 % of control | dose: 512.0 mg/kg/injection, schedule: Q01DX001 (ip), vehicle: Klucel (hydroxypropylcellulose) (HPC) 96 % of control | dose: 512.0 mg/kg/injection, schedule: Q01DX001 (oral), vehicle: Klucel (hydroxypropylcellulose) (HPC) 100 % of control | dose: 1024.0 mg/kg/injection, schedule: Q01DX001 (ip), vehicle: Klucel (hydroxypropylcellulose) (HPC) 96 % of control | dose: 1024.0 mg/kg/injection, schedule: Q01DX001 (oral), vehicle: Klucel (hydroxypropylcellulose) (HPC) 100 % of control

COc1ccc(CC2C(=O)NC(C)C(=O)N(C)C3C(=O)N(C)C(Cc4ccc(O)c(c4)Oc4ccc(cc4)C3O)C(=O)NC(C)C(=O)NC(C)C(=O)N2C)cc1 (stereo unspecified)
inactive: dose: 0.13 mg/kg/injection, schedule: Q01DX005 (ip), vehicle: saline 103 % of control | [1] 98 % of control | [2] 98 % of control | [3] 95 % of control

O=C(N[C@H](CO)[C@H](O)c1ccc([N+](=O)[O-])cc1)C(Cl)Cl
inactive: dose: 90.0 mg/kg/injection, schedule: Q01DX005 (ip), vehicle: saline with Tween-80 97 % of control | dose: 180.0 mg/kg/injection, schedule: Q01DX005 (ip), vehicle: saline with Tween-80 95 % of control and 100 % of control | dose: 360.0 mg/kg/injection, schedule: Q01DX005 (ip), vehicle: saline with Tween-80 87 % of control and 101 % of control | dose: 720.0 mg/kg/injection, schedule: Q01DX005 (ip), vehicle: saline with Tween-80 98 % of control

COc1cccc2c1C(=O)c1c(O)c3c(c(O)c1C2=O)C[C@@](O)(C(=O)CO)C[C@@H]3OC1CC(N)C(O)C(C)O1 (stereo partly specified)
inactive: dose: 0.12 mg/kg/injection, schedule: Q01DX001 (ip), vehicle: saline 96 % of control | dose: 0.25 mg/kg/injection, schedule: Q01DX001 (ip), vehicle: saline 86 % of control | [1] 108 % of control | dose: 0.25 mg/kg/injection, schedule: Q01DX009 (ip), vehicle: saline 107 % of control | dose: 0.25 mg/kg/injection, schedule: Q07DX003 (ip), vehicle: saline 106 % of control | dose: 0.25 mg/kg/injection, schedule: Q## X006 (ip), vehicle: saline 100 % of control | dose: 0.5 mg/kg/injection, schedule: Q01DX001 (ip), vehicle: saline 88 % of control | [2] 108 % of control | dose: 0.5 mg/kg/injection, schedule: Q01DX009 (ip), vehicle: saline 103 % of control | dose: 0.5 mg/kg/injection, schedule: Q## X006 (ip), vehicle: saline 119 % of control | dose: 0.5 mg/kg/injection, schedule: Q#A X002 (ip), vehicle: saline 105 % of control | dose: 1.0 mg/kg/injection, schedule: Q01DX001 (ip), vehicle: saline 96 % of control (2×) and 100 % of control | [3] 110 % of control | dose: 1.0 mg/kg/injection, schedule: Q01DX005 (oral), vehicle: saline 100 % of control | dose: 1.0 mg/kg/injection, schedule: Q07DX003 (ip), vehicle: saline 96 % of control | dose: 1.0 mg/kg/injection, schedule: Q## X006 (ip), vehicle: saline 110 % of control | dose: 1.0 mg/kg/injection, schedule: Q#A X002 (ip), vehicle: saline 97 % of control | dose: 2.0 mg/kg/injection, schedule: Q01DX001 (ip), vehicle: saline 104 % of control and 106 % of control and 111 % of control | dose: 2.0 mg/kg/injection, schedule: Q01DX005 (ip), vehicle: saline 103 % of control | dose: 2.0 mg/kg/injection, schedule: Q07DX003 (ip), vehicle: saline 101 % of control | dose: 2.0 mg/kg/injection, schedule: Q## X006 (ip), vehicle: saline 119 % of control | dose: 2.0 mg/kg/injection, schedule: Q#A X002 (ip), vehicle: saline 93 % of control | dose: 4.0 mg/kg/injection, schedule: Q01DX001 (oral), vehicle: saline 101 % of control and 109 % of control | dose: 4.0 mg/kg/injection, schedule: Q01DX005 (oral), vehicle: saline 94 % of control | dose: 4.0 mg/kg/injection, schedule: Q#A X002 (ip), vehicle: saline 101 % of control and 108 % of control | dose: 8.0 mg/kg/injection, schedule: Q01DX001 (oral), vehicle: saline 92 % of control and 97 % of control | dose: 8.0 mg/kg/injection, schedule: Q01DX005 (oral), vehicle: saline 100 % of control | dose: 8.0 mg/kg/injection, schedule: Q#A X002 (ip), vehicle: saline 97 % of control | dose: 16.0 mg/kg/injection, schedule: Q01DX001 (ip), vehicle: saline 101 % of control | dose: 16.0 mg/kg/injection, schedule: Q01DX001 (oral), vehicle: saline 96 % of control and 98 % of control and 106 % of control | dose: 16.0 mg/kg/injection, schedule: Q#A X002 (ip), vehicle: saline 89 % of control | dose: 32.0 mg/kg/injection, schedule: Q01DX001 (ip), vehicle: saline 100 % of control | dose: 32.0 mg/kg/injection, schedule: Q01DX001 (oral), vehicle: saline 89 % of control and 92 % of control and 109 % of control | dose: 32.0 mg/kg/injection, schedule: Q#A X002 (ip), vehicle: saline 86 % of control | dose: 64.0 mg/kg/injection, schedule: Q01DX001 (oral), vehicle: saline 103 % of control and 107 % of control and 86 % of control | dose: 64.0 mg/kg/injection, schedule: Q#A X002 (ip), vehicle: saline 88 % of control | dose: 128.0 mg/kg/injection, schedule: Q01DX001 (ip), vehicle: saline 88 % of control | dose: 128.0 mg/kg/injection, schedule: Q01DX001 (oral), vehicle: saline 93 % of control and 103 % of control and 107 % of control | dose: 128.0 mg/kg/injection, schedule: Q#A X002 (ip), vehicle: saline 86 % of control | dose: 256.0 mg/kg/injection, schedule: Q01DX001 (oral), vehicle: saline 103 % of control and 111 % of control
